As usually defined, the pIC50 is the negative decadic logarithm of the IC50, by convention in mol/L. Read a high pIC50 as a small IC50.

The source of these data is patent publication US10526294B2, “Pyrrolobenzodiazepines and conjugates thereof” (priority 2016, dated 2020).

The structures appear in SMILES notation. pIC50: −log10 of the molar value.

Assay type in all cases: cell-based
In one assay the test system is JIMT1 cells. Description: Cell viability assay (CellTiter-Glo), JIMT1. As to conditions: Homo sapiens, JIMT-1, HER2 medium expression level cells, 72 h. The method, then: (§1) Cell Viability Assay for Antibody-Polymer-Drug Conjugates.
(§2) PBD compounds and conjugates thereof were evaluated for their antiproliferation properties in tumor cell lines in vitro using CellTiter-Glo® (Promega Corp). Cells were plated in black walled 96-well plate and allowed to adhere overnight at 37° C. in a humidified atmosphere of 5% CO2. BT474, SKBR3, NCI-N87 cells (HER2 expressing cells), JIMT1 cells (HER2 medium expression level cells) and MCF7 cells (HER2 low expressing levels cells) and were plated at a density of 5,000 cells per well. The next day the medium was replaced with 50 μL fresh medium and 50 μL of 2× stocks of PBD compounds or antibody-PBD conjugate were added to appropriate wells, mixed and incubated for 72 h. CellTiter-Glo® reagent was added to the wells at room temperature and the luminescent signal was measured after 10 min using a SpectraMax M5 plate reader (Molecular Devices). Dose response curves were generated using SoftMax Pro software. IC50 values were determined from four-parameter curve fitting.
On the technique in general: ATP-based viability assays read luminescence as a measure of living cells.

In a further assay the test system is NCI-N87 cells. Description: Cell viability assay (CellTiter-Glo), NCI-N87. The conditions noted are these: Homo sapiens, HER2 expressing cells, 72 h. The protocol:
as §1, §2

The subject of the next assay is SKBR3 cells. Put plainly: Cell viability assay (CellTiter-Glo), SKBR3. As to conditions: Homo sapiens, SK-BR-3, HER2 expressing cells, 72 h. The method, then: as §1, §2
A further assay relates to MCF7 cells. Put plainly: Cell viability assay (CellTiter-Glo), MCF7. As to conditions: Homo sapiens, HER2 low expressing levels cells, 72 h. The protocol:
as §1, §2

A further assay deals with BT474 cells. Put plainly: Cell viability assay (CellTiter-Glo), BT474. The conditions noted are these: Homo sapiens, BT-474, HER2 expressing cells, 72 h. The protocol:
as §1, §2

For the compound `C=C1C[C@H]2C=Nc3cc(OCCCC(=O)Nc4cc(C(=O)Nc5ccc(-c6cc(C(=O)NCCCO)n(C)c6)cc5)n(C)c4)c(OC)cc3C(=O)N2C1` [Compound 37, (S,Z)—N-(3-hydroxypropyl)-4-(4-(4-(4-(7-methoxy-2-methylene-5-oxo-2,3,5,11a-tetrahydro-1H-benzo[e]pyrrolo[1,2-a][1,4]diazepin-8-yloxy)butanamido)-1-methyl-1H-pyrrole-2-carboxamido)phenyl)-1-methyl-1H-pyrrole-2-carboxamide], the pIC50 with JIMT1 cells (PBD compounds (Table I)) is 9.00; in the assay with NCI-N87 cells (PBD compounds (Table I)), 9.00; in the assay on SKBR3 cells (PBD compounds (Table I)), 9.05; in the assay on MCF7 cells (PBD compounds (Table I)), 8.31; with BT474 cells (PBD compounds (Table I)), 8.54.

Turning to `COc1cc2c(cc1OCCCC(=O)Nc1cn(C)c(C(=O)Nc3ccc(-c4cc(C(=O)O)n(C)c4)cc3)n1)N=C[C@@H]1CCCN1C2=O` [Compound 44, (S,Z)-4-(4-(4-(4-(7-methoxy-5-oxo-2,3,5,11a-tetrahydro-1H-benzo[e]pyrrolo[1,2-a][1,4]diazepin-8-yloxy)butanamido)-1-methyl-1H-imidazole-2-carboxamido)phenyl)-1-methyl-1H-pyrrole-2-carboxylic acid], the pIC50 in the assay with JIMT1 cells (PBD compounds (Table I)) is 6.96; in the assay on NCI-N87 cells (PBD compounds (Table I)), 6.98; with SKBR3 cells (PBD compounds (Table I)) it was 7.28; in the assay on MCF7 cells (PBD compounds (Table I)), 6.25; in the assay on BT474 cells (PBD compounds (Table I)) it was 6.00.

Consider `C=C1C[C@H]2C=Nc3cc(OCCCC(=O)Nc4cn(C)c(C(=O)Nc5ccc(-c6cc7cc(N)ccc7[nH]6)cc5)n4)c(OC)cc3C(=O)N2C1` [Compound 18, (S)—N-(4-(5-amino-1H-indol-2-yl)phenyl)-4-(4-((7-methoxy-2-methylene-5-oxo-2,3,5,11a-tetrahydro-1H-benzo[e]pyrrolo[1,2-a][1,4]diazepin-8-yl)oxy)butanamido)-1-methyl-1H-imidazole-2-carboxamide], for which the pIC50 is 9.70 in the assay with JIMT1 cells (PBD compounds (Table I)); 9.70 with NCI-N87 cells (PBD compounds (Table I)); 10.10 in the assay with SKBR3 cells (PBD compounds (Table I)); 9.15 in the assay with MCF7 cells (PBD compounds (Table I)); 9.30 with BT474 cells (PBD compounds (Table I)).

`C=C1CC2C=Nc3cc(OCCCC(=O)Nc4cn(C)c(C(=O)Nc5ccc(-c6nc7ccc(C(=O)OC)cc7[nH]6)cc5)n4)c(OC)cc3C(=O)N2C1` (centres unmarked) [Compound 33, (Z)-methyl 2-(4-(4-(4-(7-methoxy-2-methylene-5-oxo-2,3,5,11a-tetrahydro-1H-benzo[e]pyrrolo[1,2-a][1,4]diazepin-8-yloxy)butanamido)-1-methyl-1H-imidazole-2-carboxamido)phenyl)-1H-benzo[d]imidazole-6-carboxylate]: the pIC50 in the assay with JIMT1 cells (PBD compounds (Table I)) was 9.52; in the assay on NCI-N87 cells (PBD compounds (Table I)), 9.05; in the assay on SKBR3 cells (PBD compounds (Table I)) it was 9.52; in the assay with MCF7 cells (PBD compounds (Table I)) it was 8.47; in the assay on BT474 cells (PBD compounds (Table I)), 8.51.

As for `C=C1C[C@H]2C=Nc3cc(OCCCC(=O)Nc4cn(C)c(C(=O)Nc5ccc(-c6cc(C(=O)O)n(C)c6)cc5)n4)c(OC)cc3C(=O)N2C1` [Compound 43, (S,Z)-4-(4-(4-(4-(7-methoxy-2-methylene-5-oxo-2,3,5,11a-tetrahydro-1H-benzo[e]pyrrolo[1,2-a][1,4]diazepin-8-yloxy)butanamido)-1-methyl-1H-imidazole-2-carboxamido)phenyl)-1-methyl-1H-pyrrole-2-carboxylic acid], the pIC50 in the assay on JIMT1 cells (PBD compounds (Table I)) was 7.48; in the assay with NCI-N87 cells (PBD compounds (Table I)), 7.92; with SKBR3 cells (PBD compounds (Table I)) it was 8.09; in the assay with MCF7 cells (PBD compounds (Table I)), 6.60; in the assay on BT474 cells (PBD compounds (Table I)), 7.46.

For `C=C1C[C@H]2C=Nc3cc(OCCCC(=O)Nc4cn(C)c(C(=O)Nc5ccc(-c6cc(C(=O)NC[C@H](C)O)n(C)c6)cc5)n4)c(OC)cc3C(=O)N2C1` [Compound 42, N-(4-(5-((S)-2-hydroxypropylcarbamoyl)-1-methyl-1H-pyrrol-3-yl)phenyl)-4-(4-((S,Z)-7-methoxy-2-methylene-5-oxo-2,3,5,11a-tetrahydro-1H-benzo[e]pyrrolo[1,2-a][1,4]diazepin-8-yloxy)butanamido)-1-methyl-1H-imidazole-2-carboxamide], the pIC50 in the assay on JIMT1 cells (PBD compounds (Table I)) was 8.92; in the assay on NCI-N87 cells (PBD compounds (Table I)) it was 8.85; in the assay on SKBR3 cells (PBD compounds (Table I)), 8.85; in the assay on MCF7 cells (PBD compounds (Table I)), 8.35; in the assay with BT474 cells (PBD compounds (Table I)), 8.29.

As for `COc1cc2c(cc1OCCCC(=O)Nc1cn(C)c(C(=O)Nc3ccc(-c4cc(C(=O)NCCCO)n(C)c4)cc3)n1)N=C[C@@H]1CCCN1C2=O` [Compound 40, (S,Z)—N-(4-(5-(3-hydroxypropylcarbamoyl)-1-methyl-1H-pyrrol-3-yl)phenyl)-4-(4-(7-methoxy-5-oxo-2,3,5,11a-tetrahydro-1H-benzo[e]pyrrolo[1,2-a][1,4]diazepin-8-yloxy)butanamido)-1-methyl-1H-imidazole-2-carboxamide], the pIC50 with JIMT1 cells (PBD compounds (Table I)) is 8.89; in the assay on NCI-N87 cells (PBD compounds (Table I)), 8.77; with SKBR3 cells (PBD compounds (Table I)), 9.10; in the assay on MCF7 cells (PBD compounds (Table I)) it was 8.26; in the assay with BT474 cells (PBD compounds (Table I)) it was 8.52.

Consider `C=C1C[C@H]2C=Nc3cc(OCCCC(=O)Nc4cn(C)c(C(=O)Nc5ccc(-c6cc(C(=O)NCCCO)n(C)c6)cc5)n4)c(OC)cc3C(=O)N2C1` [Compound 39, (S)—N-(4-(5-((3-hydroxypropyl)carbamoyl)-1-methyl-1H-pyrrol-3-yl)phenyl)-4-(4-((7-methoxy-2-methylene-5-oxo-2,3,5,11a-tetrahydro-1H-benzo[e]pyrrolo[1,2-a][1,4]diazepin-8-yl)oxy)butanamido)-1-methyl-1H-imidazole-2-carboxamide], for which the pIC50 is 9.05 in the assay with JIMT1 cells (PBD compounds (Table I)), 9.40 with NCI-N87 cells (PBD compounds (Table I)), 9.22 in the assay on SKBR3 cells (PBD compounds (Table I)) and 8.62 in the assay on BT474 cells (PBD compounds (Table I)).

Turning to `C=C1C[C@H]2C=Nc3cc(OCCCC(=O)Nc4cn(C)c(C(=O)Nc5ccc(-c6cc7cc(OC)ccc7[nH]6)cc5)n4)c(OC)cc3C(=O)N2C1` [Compound 108, (S,Z)—N-(4-(5-methoxy-1H-indol-2-yl)phenyl)-4-(4-(7-methoxy-2-methylene-5-oxo-2,3,5,11a-tetrahydro-1H-benzo[e]pyrrolo[1,2-a][1,4]diazepin-8-yloxy)butanamido)-1-methyl-1H-imidazole-2-carboxamide], the pIC50 with NCI-N87 cells (conjugates (Table II)) is 10.40; in the assay with SKBR3 cells (conjugates (Table II)), 10.30; in the assay with MCF7 cells (conjugates (Table II)) it was 9.37; in the assay with BT474 cells (conjugates (Table II)) it was 10.70.

In the case of `C=C1C[C@H]2C=Nc3cc(OCCCC(=O)Nc4cc(-c5nc6ccc(N)cc6[nH]5)n(C)c4)c(OC)cc3C(=O)N2C1` [Compound 27, (S,Z)—N-(5-(6-amino-1H-benzo[d]imidazol-2-yl)-1-methyl-1H-pyrrol-3-yl)-4-(7-methoxy-2-methylene-5-oxo-2,3,5,11a-tetrahydro-1H-benzo[e]pyrrolo[1,2-a][1,4]diazepin-8-yloxy)butanamide], the pIC50 with JIMT1 cells (PBD compounds (Table I)) is 8.05; with NCI-N87 cells (PBD compounds (Table I)) it was 7.89; with SKBR3 cells (PBD compounds (Table I)), 8.21; in the assay on MCF7 cells (PBD compounds (Table I)), 7.59; in the assay on BT474 cells (PBD compounds (Table I)), 7.56.

On to `C=C1C[C@H]2C=Nc3cc(OCCCC(=O)Nc4cn(C)c(C(=O)Nc5ccc(-c6cc(C(=O)OCCCN)n(C)c6)cc5)n4)c(OC)cc3C(=O)N2C1` [Compound 41, (S,Z)-3-aminopropyl 4-(4-(4-(4-(7-methoxy-2-methylene-5-oxo-2,3,5,11a-tetrahydro-1H-benzo[e]pyrrolo[1,2-a][1,4]diazepin-8-yloxy)butanamido)-1-methyl-1H-imidazole-2-carboxamido)phenyl)-1-methyl-1H-pyrrole-2-carboxylate], for which the pIC50 in the assay with JIMT1 cells (PBD compounds (Table I)) was 9.10; in the assay with NCI-N87 cells (PBD compounds (Table I)), 8.20; with SKBR3 cells (PBD compounds (Table I)), 8.52; in the assay on MCF7 cells (PBD compounds (Table I)) it was 6.85; with BT474 cells (PBD compounds (Table I)), 6.52.

For `COc1cc2c(cc1OCCCC(=O)Nc1cc(C(=O)Nc3ccc(-c4cc(C(=O)NCCCO)n(C)c4)cc3)n(C)c1)N=C[C@@H]1CCCN1C2=O` [Compound 38, (S,Z)—N-(3-hydroxypropyl)-4-(4-(4-(4-(7-methoxy-5-oxo-2,3,5,11a-tetrahydro-1H-benzo[e]pyrrolo[1,2-a][1,4]diazepin-8-yloxy)butanamido)-1-methyl-1H-pyrrole-2-carboxamido)phenyl)-1-methyl-1H-pyrrole-2-carboxamide], the pIC50 was 8.52 with JIMT1 cells (PBD compounds (Table I)); 8.40 in the assay with NCI-N87 cells (PBD compounds (Table I)); 8.70 in the assay with SKBR3 cells (PBD compounds (Table I)); 8.10 in the assay with MCF7 cells (PBD compounds (Table I)); 8.15 with BT474 cells (PBD compounds (Table I)).

As for `C=C1CC2C=Nc3cc(OCCCC(=O)Nc4cn(C)c(C(=O)Nc5ccc(-c6cc(C(=O)n7ccc8cc(C(=O)OC)ccc87)n(C)c6)cc5)n4)c(OC)cc3C(=O)N2C1` (centres unmarked) [Compound 109, methyl 1-(4-(4-(4-(4-((7-methoxy-2-methylene-5-oxo-2,3,5,11a-tetrahydro-1H-benzo[e]pyrrolo[1,2-a][1,4]diazepin-8-yl)oxy)butanamido)-1-methyl-1H-imidazole-2-carboxamido)phenyl)-1-methyl-1H-pyrrole-2-carbonyl)-1H-indole-5-carboxylate], the pIC50 is 9.55 with JIMT1 cells (conjugates (Table II)), 9.85 in the assay on NCI-N87 cells (conjugates (Table II)), 9.74 with MCF7 cells (conjugates (Table II)) and 10.05 in the assay on BT474 cells (conjugates (Table II)).
